{"source": "patent US6894043B1", "about": "“Benzothiadiazine derivatives, preparation method and pharmaceutical compositions containing same” (Les Laboratoires Servier, priority 1999, dated 2005)", "tested_on": "AMPA receptors", "test": "Excitatory fluxes induced by AMPA in Xenopus oocytes (2-electrode voltage-clamp)", "type": "cell-based", "details": "AMPA 30 μM; Xenopus oocytes injected with rat cortex poly(A+) mRNA; 20-24° C.", "experimental": "mRNAs are prepared from cerebral cortex of male Wistar rat by the guanidium thiocyanate/phenol/chloroform method. The poly(A^+)mRNAs are isolated by chromatography on oligo-dT cellulose and injected with 50 ng per oocyte. The oocytes are left for 2 to 3 days' incubation at 10° C. to enable expression of the receptors and are then stored at 8-10° C.\nElectrophysiological recording is carried out in a plexiglass chamber at 20-24° C. in an OR2 medium (J. Exp. Zool., 1973, 184, 321-334) by the 2-electrode “voltage-clamp” method, with a 3rd electrode being placed in the bath to serve as reference.\nAll the compounds are administered via the incubation medium and the electric current is measured at the end of the period of administration. AMPA is used in a concentration of 30 μM. For each compound studied, there is determined the concentration that doubles (EC2X) or quintuples (EC5X) the intensity of the flux induced by AMPA alone (50 to 100 nA).", "data": [{"smiles": "CCN1CNS(=O)(=O)c2cc(Br)ccc21", "note": "[Example 3, 7-Bromo-4-ethyl-2,3-dihydro-4H-1,2,4-benzothiadiazine 1,1-dioxide]", "values": [{"measurement": "EC2X (concentration that doubles the intensity of the flux induced by AMPA alone)", "result": "29 ± 6", "unit": "µM"}, {"measurement": "EC5X (concentration that quintuples the intensity of the flux induced by AMPA alone)", "result": "78 ± 16", "unit": "µM"}]}, {"smiles": "CCN1CNS(=O)(=O)c2cc(I)ccc21", "note": "[Example 4, 4-Ethyl-7-iodo-2,3-dihydro-4H-1,2,4-benzothiadiazine 1,1-dioxide]", "values": [{"measurement": "EC2X (concentration that doubles the intensity of the flux induced by AMPA alone)", "result": "95 ± 31", "unit": "µM"}, {"measurement": "EC5X (concentration that quintuples the intensity of the flux induced by AMPA alone)", "result": ">300", "unit": "µM"}]}]}
